Activity calls are given as the source filed them.
How the values were obtained:
[1] = target: T1, Sentrin-specific protease 8 (Homo sapiens, UniProt Q96LD8); type: functional;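 note: luminescence read-out of SENP8 inhibition, dose-response confirmation following an ultra-high-throughput screen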
T1 sequence (Q96LD8 whole entry): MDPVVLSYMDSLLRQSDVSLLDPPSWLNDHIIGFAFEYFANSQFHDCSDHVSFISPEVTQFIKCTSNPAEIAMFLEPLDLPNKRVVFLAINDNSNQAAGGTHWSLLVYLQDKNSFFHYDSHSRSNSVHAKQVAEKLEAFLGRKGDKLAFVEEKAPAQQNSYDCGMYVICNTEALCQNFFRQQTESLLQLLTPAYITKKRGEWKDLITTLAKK

[2] = target: T2, Sentrin-specific protease 6 (Homo sapiens, UniProt Q9GZR1); type: functional;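 note: Luminescence-based dose-response confirmatory assay of SENP6 inhibition, following up an ultra-high-throughput screen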
T2 sequence (Q9GZR1 whole entry): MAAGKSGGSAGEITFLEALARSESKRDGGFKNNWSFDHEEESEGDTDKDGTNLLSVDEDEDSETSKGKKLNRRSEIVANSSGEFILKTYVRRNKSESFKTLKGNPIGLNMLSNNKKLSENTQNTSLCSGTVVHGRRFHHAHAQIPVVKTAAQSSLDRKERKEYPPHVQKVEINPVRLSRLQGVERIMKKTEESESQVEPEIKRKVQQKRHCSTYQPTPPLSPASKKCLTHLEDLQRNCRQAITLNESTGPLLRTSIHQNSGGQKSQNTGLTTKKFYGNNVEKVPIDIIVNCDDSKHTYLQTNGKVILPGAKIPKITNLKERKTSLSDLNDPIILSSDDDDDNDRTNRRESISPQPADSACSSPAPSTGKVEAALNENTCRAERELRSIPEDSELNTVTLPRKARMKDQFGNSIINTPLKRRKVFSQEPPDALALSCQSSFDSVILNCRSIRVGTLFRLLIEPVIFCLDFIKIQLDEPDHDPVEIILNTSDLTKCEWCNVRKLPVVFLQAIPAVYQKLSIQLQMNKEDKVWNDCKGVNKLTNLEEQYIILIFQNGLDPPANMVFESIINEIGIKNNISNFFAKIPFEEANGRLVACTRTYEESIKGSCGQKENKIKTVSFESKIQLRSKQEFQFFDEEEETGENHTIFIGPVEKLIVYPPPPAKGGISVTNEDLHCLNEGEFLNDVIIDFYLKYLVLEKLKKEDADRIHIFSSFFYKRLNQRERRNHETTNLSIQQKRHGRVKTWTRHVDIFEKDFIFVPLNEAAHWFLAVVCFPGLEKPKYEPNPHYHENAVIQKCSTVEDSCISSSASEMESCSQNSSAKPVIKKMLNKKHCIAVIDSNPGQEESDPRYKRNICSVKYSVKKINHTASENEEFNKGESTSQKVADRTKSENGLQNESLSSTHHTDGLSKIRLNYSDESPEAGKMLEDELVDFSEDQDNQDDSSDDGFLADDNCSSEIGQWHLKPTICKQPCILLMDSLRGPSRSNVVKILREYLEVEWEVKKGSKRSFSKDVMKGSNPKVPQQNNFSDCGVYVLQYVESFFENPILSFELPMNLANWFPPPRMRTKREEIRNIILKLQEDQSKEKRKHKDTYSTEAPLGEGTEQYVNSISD

[3] = MC4R antagonists, dose response, counter-screen for LGR2 antagonist project, cell-based, plate reader, cherry pick (AID 743444); type: functional;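 note: transfected HEK 293 cells stimulated with alpha-MSH peptide; potency of inhibitors of the alpha-MSH evoked signal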
[4] = target: T3, Sentrin-specific protease 7 (Homo sapiens, UniProt Q9BQF6); type: functional;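 note: Luminescence-based dose-response confirmation of ultra-high-throughput screening hits, measuring inhibition of SENP7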
T3 sequence (Q9BQF6 whole entry): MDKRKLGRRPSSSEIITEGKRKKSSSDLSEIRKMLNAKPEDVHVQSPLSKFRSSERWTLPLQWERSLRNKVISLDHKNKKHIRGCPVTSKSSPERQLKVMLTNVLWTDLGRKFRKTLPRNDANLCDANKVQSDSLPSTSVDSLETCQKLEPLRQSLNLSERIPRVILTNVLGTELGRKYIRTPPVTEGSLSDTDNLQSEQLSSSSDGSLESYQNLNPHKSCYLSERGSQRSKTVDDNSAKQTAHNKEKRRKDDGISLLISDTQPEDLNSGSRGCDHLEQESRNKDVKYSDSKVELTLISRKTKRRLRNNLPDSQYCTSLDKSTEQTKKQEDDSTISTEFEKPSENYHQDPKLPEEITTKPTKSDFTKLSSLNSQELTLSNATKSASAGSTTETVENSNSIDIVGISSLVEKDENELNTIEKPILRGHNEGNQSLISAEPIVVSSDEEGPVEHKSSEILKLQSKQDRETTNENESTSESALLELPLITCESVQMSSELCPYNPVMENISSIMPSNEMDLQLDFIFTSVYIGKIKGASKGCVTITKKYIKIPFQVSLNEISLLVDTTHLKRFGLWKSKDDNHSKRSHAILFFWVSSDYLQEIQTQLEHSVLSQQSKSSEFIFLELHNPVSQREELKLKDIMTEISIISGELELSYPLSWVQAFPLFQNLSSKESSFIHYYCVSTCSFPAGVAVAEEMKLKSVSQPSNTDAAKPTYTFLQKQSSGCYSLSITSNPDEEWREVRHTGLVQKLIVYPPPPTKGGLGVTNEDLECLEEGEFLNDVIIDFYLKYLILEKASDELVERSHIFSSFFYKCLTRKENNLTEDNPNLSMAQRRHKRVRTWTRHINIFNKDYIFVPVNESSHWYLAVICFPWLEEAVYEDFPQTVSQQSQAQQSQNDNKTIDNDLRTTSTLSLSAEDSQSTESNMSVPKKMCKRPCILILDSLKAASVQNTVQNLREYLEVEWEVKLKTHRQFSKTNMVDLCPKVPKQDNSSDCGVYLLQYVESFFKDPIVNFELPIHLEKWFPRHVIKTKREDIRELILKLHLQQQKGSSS

[5] = target: Trypsin (Sus scrofa, UniProt P00761); assay: porcine trypsin inhibitors, dose response, selectivity assay for Rce1 protease inhibitor project, biochemical, quenched peptide fluorescence, cherry-pick (AID 488789)
[6] = LGR2 antagonists, dose response, cell-based, HEK293, CRE-luciferase reporter, cherry pick, set 2 (AID 743343); type: functional;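 note: transfected cells were stimulated with diluted bursicon conditioned medium after compound addition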
[7] = target: T4, Caspase-3 (Homo sapiens, UniProt P42574); type: functional;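 note: Dose-response selectivity test against caspase-3 for candidate inhibitors of sentrin-specific proteases (SENPs)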
T4 sequence (P42574 whole entry): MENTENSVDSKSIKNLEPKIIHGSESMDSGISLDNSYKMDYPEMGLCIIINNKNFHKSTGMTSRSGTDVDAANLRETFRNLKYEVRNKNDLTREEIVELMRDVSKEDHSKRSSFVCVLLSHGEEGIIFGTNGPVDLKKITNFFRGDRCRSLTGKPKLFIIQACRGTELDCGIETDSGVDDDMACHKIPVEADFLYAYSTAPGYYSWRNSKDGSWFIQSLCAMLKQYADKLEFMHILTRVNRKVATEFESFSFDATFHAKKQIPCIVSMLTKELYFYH

[8] = target: T5, CAAX prenyl protease 2 (Saccharomyces cerevisiae S288c, UniProt Q03530); type: biochemical
T5 sequence (Q03530 whole entry): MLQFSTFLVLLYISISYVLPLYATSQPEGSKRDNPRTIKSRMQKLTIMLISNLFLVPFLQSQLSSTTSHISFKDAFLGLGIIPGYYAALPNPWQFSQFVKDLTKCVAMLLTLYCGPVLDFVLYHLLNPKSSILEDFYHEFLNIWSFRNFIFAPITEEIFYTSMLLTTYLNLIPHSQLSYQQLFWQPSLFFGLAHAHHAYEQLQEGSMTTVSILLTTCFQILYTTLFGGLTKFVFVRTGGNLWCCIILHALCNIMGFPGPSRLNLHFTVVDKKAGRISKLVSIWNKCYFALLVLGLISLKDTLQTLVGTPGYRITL

[9] = Luminescence-based counterscreen assay for KLF5 inhibitors: dose response cell-based high throughput screening assay to identify cytotoxic compounds using the IEC-6 intestinal epithelial cell line. [Related pubchem assays: 1700 (Primary screen.), 1834 (Confirmation screen.), 1858 (Summary AID.), 1905 (Counterscreen.)]; type: functional
[10] = target: T6, Neuropeptide Y receptor type 1 (Homo sapiens, UniProt P25929); type: functional;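 note: HEK293 cells with a CNG channel challenged with NPY then isoproterenol; potency as antagonist that reverses NPY suppression of cAMP signal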
[11] = target: T7, Neuropeptide Y receptor type 2 (Homo sapiens, UniProt P49146); type: functional, cell-based;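 note: HEK293 cells expressing the receptor and a CNG channel; stimulus was NPY near EC95 followed by isoproterenol to raise cAMP; antagonist potency measured as restoring cAMP signal that NPY suppresses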
[12] = Vero E6 cell cytotoxicity, dose response, cytotoxicity control for non-replicating M. tuberculosis project, secondary assay (AID 492998); type: functional, VeroE6; settings: Vero C1008
[13] = cells; type: functional
[14] = system: HeLa; assay: Cytotoxicity counterscreen assay for transcriptional activators of heat shock protein 70 (Hsp70). [Related pubchem assays: 1203, 1252 ]; type: functional; settings: Homo sapiens;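 note: cells exposed to compound for 16 hours before readout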
[15] = target: Epstein-Barr nuclear antigen 1 (Epstein-Barr virus (strain B95-8) (HHV-4) (Human herpesvirus 4), UniProt P03211); assay: EBNA-1 inhibitors, dose response, biochemical, fluorescence polarization, 1536-well (AID 2381); parameters: species or system human gammaherpesvirus 4;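 note: fluorescence polarization of a Cy5 DNA probe bound by EBNA-1 protein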
[16] = target: Lytic switch protein BZLF1 (Epstein-Barr virus (strain B95-8) (HHV-4) (Human herpesvirus 4), UniProt P03206); assay: EBV ZTA inhibitors, dose response, counter-screen for EBNA-1 inhibitor project, biochemical, fluorescence polarization, Epstein-Barr virus, 1536-well (AID 2377); parameters: species or system human gammaherpesvirus 4;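 note: fluorescence polarization of Cy5-labelled ZRE DNA probe bound by purified Zta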
[17] = target: Bcl-2-like protein 10 (Homo sapiens, UniProt Q9HD36); assay: Biochemical TR3 FP assay of Bcl-B inhibitor potency, EC50 (AID 1243); type: functional
[18] = target: NADPH oxidase 1 (Homo sapiens, UniProt Q9Y5S8); type: functional, cell-based;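 note: Cell-based assay with luminescence read-out, IC50 derived from inhibitor dose-response curves; intracellular ROS from endogenous NOX1 in intact HT29 colon cancer cells; potency of inhibitors that lower the ROS luminescence signal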
[19] = target: T6, Neuropeptide Y receptor type 1; assay: NPY-Y1 receptor antagonist potency, dose response, cell-based (AID 1277); type: functional
[20] = target: T7, Neuropeptide Y receptor type 2; assay: NPY-Y2 antagonist potency, selectivity check, dose response, counter-screen for NPY-Y1 antagonist project, cell-based (AID 1278); type: functional
[21] = target: T8, Estrogen receptor (Homo sapiens, UniProt P03372); assay: potentiators of ERα–SRC-1 coactivator binding, dose response, biochemical, TR-FRET, ERα LBD (AID 737)
T8 sequence (P03372 whole entry): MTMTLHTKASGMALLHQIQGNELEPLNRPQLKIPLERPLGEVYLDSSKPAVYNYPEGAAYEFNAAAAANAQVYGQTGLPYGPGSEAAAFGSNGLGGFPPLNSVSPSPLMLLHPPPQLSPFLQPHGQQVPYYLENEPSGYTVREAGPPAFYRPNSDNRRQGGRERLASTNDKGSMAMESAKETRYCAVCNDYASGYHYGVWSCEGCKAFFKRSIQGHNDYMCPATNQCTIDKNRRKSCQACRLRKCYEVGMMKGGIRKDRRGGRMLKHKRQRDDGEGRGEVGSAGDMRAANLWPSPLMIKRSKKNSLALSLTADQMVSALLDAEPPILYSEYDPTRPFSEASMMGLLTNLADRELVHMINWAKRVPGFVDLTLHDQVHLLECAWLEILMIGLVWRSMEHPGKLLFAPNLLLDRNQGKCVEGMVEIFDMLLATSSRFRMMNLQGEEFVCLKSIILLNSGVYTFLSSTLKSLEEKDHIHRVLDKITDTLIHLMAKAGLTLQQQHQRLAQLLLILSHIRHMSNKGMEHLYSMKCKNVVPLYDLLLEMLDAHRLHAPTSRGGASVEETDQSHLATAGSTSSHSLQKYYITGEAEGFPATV

[22] = enhancers of respiration in Yfh1-depleted yeast, dose response, Friedreich's ataxia, plus single-dose screen (AID 1465); type: functional;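 note: yeast depleted of Yfh1p frataxin homolog grown on glycerol needing respiration; WST-1 tetrazolium dye reduction as measure of cellular dehydrogenase metabolic activity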
[23] = target: T9, Mannose-6-phosphate isomerase (Homo sapiens, UniProt P34949); assay: inhibitors of human PMI, primary screen, biochemical, fluorescence intensity, coupled assay (AID 1209)
T9 sequence (P34949 whole entry): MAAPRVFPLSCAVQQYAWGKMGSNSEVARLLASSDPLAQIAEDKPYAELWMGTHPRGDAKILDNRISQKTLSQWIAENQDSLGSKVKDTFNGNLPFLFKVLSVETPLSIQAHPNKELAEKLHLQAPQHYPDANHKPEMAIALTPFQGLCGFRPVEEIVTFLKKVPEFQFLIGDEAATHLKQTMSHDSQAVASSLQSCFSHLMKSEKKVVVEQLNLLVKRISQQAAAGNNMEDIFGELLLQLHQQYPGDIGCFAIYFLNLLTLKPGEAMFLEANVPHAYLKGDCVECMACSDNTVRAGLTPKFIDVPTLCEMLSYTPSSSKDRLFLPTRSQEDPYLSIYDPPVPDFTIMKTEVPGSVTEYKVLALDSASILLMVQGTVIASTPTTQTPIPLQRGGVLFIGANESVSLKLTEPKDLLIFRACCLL

[24] = target: T9, Mannose-6-phosphate isomerase; assay: human PMI inhibitors, high substrate, primary screen, biochemical, fluorescence intensity, high mannose 6-phosphate (AID 1220)
[25] = target: FAD-linked sulfhydryl oxidase ALR (Homo sapiens, UniProt P55789); assay: inhibitors of human ALR sulfhydryl oxidase, dose response, biochemical, H2O2 detection, luminescence, cherry-pick (AID 493248)
Chain of FAD-linked sulfhydryl oxidase ALR (P55789 whole entry): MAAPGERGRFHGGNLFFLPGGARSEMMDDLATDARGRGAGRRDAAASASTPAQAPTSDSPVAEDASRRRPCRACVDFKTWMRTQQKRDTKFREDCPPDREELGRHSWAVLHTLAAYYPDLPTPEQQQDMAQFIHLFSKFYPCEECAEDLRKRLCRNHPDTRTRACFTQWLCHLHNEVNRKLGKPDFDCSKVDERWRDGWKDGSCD

T7 sequence (P49146 whole entry): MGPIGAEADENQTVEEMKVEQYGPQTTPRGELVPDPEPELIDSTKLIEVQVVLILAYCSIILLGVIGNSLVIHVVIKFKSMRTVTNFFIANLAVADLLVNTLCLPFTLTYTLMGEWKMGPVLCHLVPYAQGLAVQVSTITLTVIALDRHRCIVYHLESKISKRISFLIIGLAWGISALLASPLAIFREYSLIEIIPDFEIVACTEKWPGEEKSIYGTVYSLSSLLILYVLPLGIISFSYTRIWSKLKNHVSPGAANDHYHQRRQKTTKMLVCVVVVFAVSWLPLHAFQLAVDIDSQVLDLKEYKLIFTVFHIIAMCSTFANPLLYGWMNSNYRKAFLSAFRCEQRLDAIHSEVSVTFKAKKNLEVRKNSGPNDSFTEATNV
T6 sequence (P25929 whole entry): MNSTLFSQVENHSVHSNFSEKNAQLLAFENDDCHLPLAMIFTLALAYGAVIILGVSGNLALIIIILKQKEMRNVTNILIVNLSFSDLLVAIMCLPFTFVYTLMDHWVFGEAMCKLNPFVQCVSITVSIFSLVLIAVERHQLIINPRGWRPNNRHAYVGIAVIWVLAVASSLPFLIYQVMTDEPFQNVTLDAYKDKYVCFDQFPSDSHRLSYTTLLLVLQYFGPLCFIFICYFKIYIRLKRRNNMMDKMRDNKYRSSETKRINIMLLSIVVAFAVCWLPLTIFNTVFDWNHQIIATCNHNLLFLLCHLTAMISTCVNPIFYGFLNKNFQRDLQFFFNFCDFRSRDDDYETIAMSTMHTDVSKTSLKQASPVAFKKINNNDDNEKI
Chain of Bcl-2-like protein 10 (Q9HD36 whole entry): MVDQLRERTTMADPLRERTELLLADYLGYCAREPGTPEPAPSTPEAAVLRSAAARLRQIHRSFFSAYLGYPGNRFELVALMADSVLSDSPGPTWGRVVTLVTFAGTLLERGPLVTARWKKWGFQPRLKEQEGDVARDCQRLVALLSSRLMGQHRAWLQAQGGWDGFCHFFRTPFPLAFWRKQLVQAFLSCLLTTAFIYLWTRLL
Chain of Trypsin (P00761 whole entry): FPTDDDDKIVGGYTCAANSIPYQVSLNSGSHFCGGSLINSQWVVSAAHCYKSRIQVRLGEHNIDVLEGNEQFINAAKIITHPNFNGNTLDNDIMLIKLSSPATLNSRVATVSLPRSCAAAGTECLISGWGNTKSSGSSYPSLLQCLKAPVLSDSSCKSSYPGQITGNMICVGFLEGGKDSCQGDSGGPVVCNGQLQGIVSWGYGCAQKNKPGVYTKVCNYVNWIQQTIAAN
Chain of NADPH oxidase 1 (Q9Y5S8 whole entry): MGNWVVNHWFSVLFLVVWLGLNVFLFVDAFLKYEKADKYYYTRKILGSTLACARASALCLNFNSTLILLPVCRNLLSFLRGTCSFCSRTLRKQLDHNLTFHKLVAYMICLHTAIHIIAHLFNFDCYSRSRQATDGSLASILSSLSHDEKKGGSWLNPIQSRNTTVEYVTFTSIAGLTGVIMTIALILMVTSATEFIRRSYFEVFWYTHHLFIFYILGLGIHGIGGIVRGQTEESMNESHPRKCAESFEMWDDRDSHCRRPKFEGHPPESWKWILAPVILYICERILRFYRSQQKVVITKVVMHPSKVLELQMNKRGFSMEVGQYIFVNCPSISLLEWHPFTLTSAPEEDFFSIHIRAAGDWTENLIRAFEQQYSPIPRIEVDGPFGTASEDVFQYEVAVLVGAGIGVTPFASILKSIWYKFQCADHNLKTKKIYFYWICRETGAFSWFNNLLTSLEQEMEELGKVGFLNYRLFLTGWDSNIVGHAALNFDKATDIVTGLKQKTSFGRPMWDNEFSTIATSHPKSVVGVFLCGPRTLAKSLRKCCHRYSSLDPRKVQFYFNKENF
Chain of Lytic switch protein BZLF1 (P03206 whole entry): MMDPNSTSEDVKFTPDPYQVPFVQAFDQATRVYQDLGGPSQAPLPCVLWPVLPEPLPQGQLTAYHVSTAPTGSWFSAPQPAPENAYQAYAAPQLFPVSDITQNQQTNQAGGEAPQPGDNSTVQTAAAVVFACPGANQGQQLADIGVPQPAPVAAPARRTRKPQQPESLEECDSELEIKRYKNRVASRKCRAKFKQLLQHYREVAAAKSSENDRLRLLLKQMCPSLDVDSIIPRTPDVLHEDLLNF
Chain of Epstein-Barr nuclear antigen 1 (P03211 whole entry): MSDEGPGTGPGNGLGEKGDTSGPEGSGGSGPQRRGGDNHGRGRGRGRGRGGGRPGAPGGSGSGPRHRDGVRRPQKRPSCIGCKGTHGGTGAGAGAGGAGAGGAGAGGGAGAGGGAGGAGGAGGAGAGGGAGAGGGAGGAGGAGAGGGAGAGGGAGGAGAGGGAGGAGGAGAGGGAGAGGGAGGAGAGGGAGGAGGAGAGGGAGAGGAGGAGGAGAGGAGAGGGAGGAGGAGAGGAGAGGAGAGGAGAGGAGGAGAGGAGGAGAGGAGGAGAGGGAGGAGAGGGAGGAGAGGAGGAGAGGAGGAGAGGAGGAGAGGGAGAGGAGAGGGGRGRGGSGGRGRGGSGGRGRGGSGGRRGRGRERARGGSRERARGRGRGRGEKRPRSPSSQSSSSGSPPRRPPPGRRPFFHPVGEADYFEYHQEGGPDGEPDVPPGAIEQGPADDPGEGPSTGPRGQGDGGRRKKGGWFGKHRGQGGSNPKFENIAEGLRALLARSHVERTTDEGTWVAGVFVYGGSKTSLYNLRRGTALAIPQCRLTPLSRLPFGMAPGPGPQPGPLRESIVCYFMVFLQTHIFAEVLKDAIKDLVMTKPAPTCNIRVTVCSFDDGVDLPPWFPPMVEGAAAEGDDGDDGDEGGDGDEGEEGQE

In the case of `Nc1c(C(=O)Nc2cccc(C(=O)O)c2)sc2nc3c(cc12)CCCC3`, the IC50 [1] is reported as 31 µM (active), the IC50 [2] is reported as 15.1 µM (active) and the AC50 [3] is reported as 3.29 µM (active). For the same molecule, the IC50 [4] was 7.47 µM (active), the AC50 [5] was 10.5 µM (active) and the AC50 [6] was 3.06 µM (active). For the same molecule, the IC50 [7] was 71.6 µM (active), the AC50 [8] was 47.8 µM (active) and the IC50 [9] was > 39.8 µM (not active).
In the case of `Cc1ccc(C)c(NS(=O)(=O)c2cc(C(=O)Nc3ccccc3-c3ccccc3)ccc2C)c1`, the IC50 [10] is reported as > 35 µM (not active) and the IC50 [11] is reported as 0.298 µM (active).
In the case of `O=[N+]([O-])c1ccccc1C1Nc2cccc3cccc(c23)N1`, the CC50 [12] is reported as 14.6 µM (active), the IC50 [13] is reported as 27.2 µM (active) and the CC50 [14] is reported as > 99 µM (not active).
With `Cc1cc(C(=O)OCC(=O)c2c(N)n(C)c(=O)n(C)c2=O)c(C)n1-c1ccccc1` the IC50 [15] was 13.1 µM (not active) and the IC50 [16] was > 111 µM (not active).
In the case of `Nc1ccc(S(=O)(=O)O)c2cccc(O)c12`, the EC50 [17] is reported as 1.05 µM (active).
In the case of `COc1cc(-c2nc(-c3ccccc3)c(-c3ccccc3)[nH]2)cc(OC)c1O`, the IC50 [18] is reported as 0.517 µM (active).
In the case of `Cc1ccc(COC(=O)c2nn(-c3ccccc3)nc2N)cc1`, the IC50 [19] is reported as 12 µM (not active) and the IC50 [20] is reported as 10.6 µM (not active).
For `CCOc1ccccc1-c1nc(-c2ccc(NC(=O)c3ccc(Br)o3)cc2)no1`, the EC50 [21] was 12.7 µM (active).
In the case of `CC(C)NC(=O)/C(C#N)=C\c1ccc(N(C)C)o1`, the EC50 [22] is reported as > 100 µM (active).
With `Cn1cnnc1SCc1ccc(C(=O)N/N=C(\CCC(=O)O)c2ccc(C(C)(C)C)cc2)cc1` the IC50 [23] was > 50 µM (not active), the IC50 [24] was > 50 µM (not active) and the AC50 [25] was 0.755 µM (active).

— ChEMBL document CHEMBL1201862, “PubChem BioAssay data set” (2004)
